Reference: patent publication US12551532B2, “Long-acting amylin receptor agonists and uses thereof” (Eli Lilly and Company, priority 2021, dated 2026)
Starred links: 1 amine or outer side, 2 acyl side, 3 side chain; linkers in the order of their positions; H or OH if unused. Positions of bridges follow the written chain, without caps; N, C: chain ends. Non-standard residues stand in square brackets, D forms with d. Residues, ends and D or L forms follow the SMILES beside them. Groups on a side chain read outwards from the residue. *: point of attachment. C20 diacid = O=C(O)CCCCCCCCCCCCCCCCCCC(=O)*; γGlu = O=C(O)[C@H](CCC(=O)[*:2])N[*:1]; αMeF = C[C@](N)(Cc1ccccc1)C(=O)O; NMeD = CN[C@@H](CC(=O)O)C(=O)O; Orn = NCCC[C@H](N)C(=O)O; CH2 = C([*:1])[*:2]

Tests used:
hAMY1R = target: T1, hAMY1R (Homo sapiens, UniProt O60894+P30988); test: hAMY1R cAMP functional activity (HTRF); assay type: cell-based; conditions: ±SE; UMUC3 cells overexpressing hAMY1R; relative EC50
T1 construct: expressed in transfected cells
T1 sequence (O60894 27-148 partner, one chain of several): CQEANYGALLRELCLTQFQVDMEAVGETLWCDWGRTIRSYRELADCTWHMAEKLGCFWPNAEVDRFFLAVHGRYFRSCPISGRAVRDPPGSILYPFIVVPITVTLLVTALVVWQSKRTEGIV
Procedure, shortened: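 UMUC3 cells expressing hCTR plus transfected human RAMP1 (AMY1R) were treated with peptide in a 1:3 dilution series at 1500 cells/well for 1 h at room temperature. Intracellular cAMP was measured by HTRF after 60 min lysis-detection and converted to pmol/well against a standard curve for each run.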

human CT receptors = target: T2, human CT receptors (Homo sapiens, UniProt P30988); test: hCTR cAMP functional activity (HTRF); assay type: cell-based; conditions: ±SE; UMUC3 cells overexpressing hCTR; relative EC50
T2 construct: expressed in transfected cells
T2 sequence (P30988 25-474): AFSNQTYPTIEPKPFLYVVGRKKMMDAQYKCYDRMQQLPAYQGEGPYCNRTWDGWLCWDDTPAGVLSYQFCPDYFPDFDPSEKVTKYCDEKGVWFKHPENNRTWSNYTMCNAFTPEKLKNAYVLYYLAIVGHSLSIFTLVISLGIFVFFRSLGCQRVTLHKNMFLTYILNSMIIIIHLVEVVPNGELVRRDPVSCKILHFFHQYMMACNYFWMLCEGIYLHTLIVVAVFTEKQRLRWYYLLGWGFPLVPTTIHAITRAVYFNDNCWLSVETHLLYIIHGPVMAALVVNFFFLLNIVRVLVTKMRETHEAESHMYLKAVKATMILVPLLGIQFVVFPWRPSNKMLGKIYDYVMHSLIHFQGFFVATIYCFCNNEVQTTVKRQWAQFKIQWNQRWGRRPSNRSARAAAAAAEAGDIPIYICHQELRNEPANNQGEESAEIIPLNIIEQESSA
Procedure, shortened: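 UM-UC-3 bladder cells stably overexpressing human CT receptor, 1200 cells/well, exposed to peptides in 1:3 dilution series for 1 h at room temperature. Intracellular cAMP measured by HTRF after 60 min lysis/detection, converted to pmol/well from a per-experiment cAMP standard curve.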

[1] = Pharmacokinetics in male cynomolgus monkeys; assay type: in vivo; conditions: single SC 20 nmol/kg, mean
Procedure: The pharmacokinetics of Compound II (SEQ ID NO:2), Compound IV (SEQ ID NO:4), Compound VI (SEQ ID NO:6), and Compound VIII (SEQ ID NO:8) are evaluated following a single subcutaneous administration of 20 nmol/kg to male cynomolgus monkeys. Blood samples are collected at 1, 3, 6, 12, 24, 48, 72, 120, 168, 240, 336, 408, 504 hours post SC dose. The resulting individual plasma concentrations are used to calculate pharmacokinetic parameters. Peptide plasma (K3EDTA) concentrations are determined using a qualified LC/MS method that measured the intact mass of the peptides. Each peptide and an analog as an internal standard are extracted from plasma. A high resolution Thermo Q-Exactive is used for LC/MS detection.

human dendritic cells = assay type: cell-based
Procedure: MAPPS profiles the MHC-II presented peptides on human dendritic cells treated with tested molecules. CD14+ cells, isolated from the PBMCs of normal human donors, are cultured and differentiated into immature DCs by incubation with IL-4 and GM-CSF. On day 4, culture media is replaced with fresh media containing tested molecules. On day 5, LPS is added to transform the cells into mature DCs. On day 6, cells are lysed in RIPA buffer with protease inhibitors. Immunoprecipitation of MHC-II complexes are performed using biotinylated anti-MHC-II antibody coupled to streptavidin beads. The bound complex is eluted and filtered. The isolated MHC-II peptides are analyzed by a mass spectrometer. Peptide identifications are generated by an internal proteomics pipeline using search algorithms with no enzyme and a bovine/human database with test sequences appended to the database. A KNIME workflow is used to process the identification files from the samples. Peptides identified from the test articles are aligned against the parent sequence of the test molecule. The output is used to determine the percentage of donors displaying MHC-II peptides from regions of the test molecule. Compound II, Compound IV, Compound VI, Compound VIII, a compound representative of U.S. Pat. No. 9,023,789 (hereinafter “Compound '789”), and Pramlintide are tested in the MAPPs assay.

[2] = tested on: pre-existing antibodies (ADA) in normal human serum; test: Pre-existing reactivity (ACE assay format); conditions: >50 donors; treatment-naive normal human serum
Procedure: This assay assesses the presence of pre-existing antibodies (ADA) against the tested molecules in treatment-naive normal human serum (NHS). Diluted NHS is incubated overnight on a Pierce Streptavidin plate coated with biotinylated tested molecules. On the following day, the captured binding proteins are acid eluted, hard-coated to a Mesoscale (MSD) plate, and detected with a combination of biotin-labeled molecule and ruthenium-labeled streptavidin. If anti-drug antibodies are present, they will bind the labeled drug and the resulting signal is referred to as Tier 1 signal (expressed as electrochemiluminescence). This signal is confirmed in Tier 2 by adding excess unlabeled tested molecule in the detection step, which results in the suppression of the Tier 1 signal. The presence of pre-existing anti-drug antibodies is expressed as magnitude of the 90th percentile of Tier 2 inhibition. The 90th percentile of Tier 2 inhibition, is a statistical tool to assess the magnitude of specificity of Tier 1 reactivity. This 90th percentile is used to rank molecules in terms of ADA risk.

[3] = male, cynomolgus monkey, plasma, n = 3

For `CC[C@H](C)[C@H](NC(=O)[C@@H]1CCCN1C(=O)CNC(=O)[C@H](Cc1ccccc1)NC(=O)[C@H](CC(=O)O)N(C)C(=O)[C@H](CC(N)=O)NC(=O)[C@H](CO)NC(=O)[C@H](CO)NC(=O)[C@H](CCCNC(=N)N)NC(=O)[C@@H](NC(=O)[C@H](CC(C)C)NC(=O)[C@](C)(Cc1ccccc1)NC(=O)[C@H](CCC(=O)O)NC(=O)[C@H](C)NC(=O)[C@H](CC(C)C)NC(=O)[C@H](CCCN)NC(=O)CNC(=O)[C@@H](NC(=O)[C@H](C)NC(=O)[C@@H]1CSCSC[C@H](NC(=O)[C@@H](N)CCCCNC(=O)CC[C@H](NC(=O)CC[C@H](NC(=O)CCCCCCCCCCCCCCCCCCC(=O)O)C(=O)O)C(=O)O)C(=O)N[C@@H](CCC(=O)O)C(=O)N[C@@H]([C@@H](C)O)C(=O)N[C@@H](C)C(=O)N[C@@H]([C@@H](C)O)C(=O)N1)[C@@H](C)O)C(C)C)C(=O)N[C@@H](CC(C)C)C(=O)N1CCC[C@H]1C(=O)N1CCC[C@H]1C(=O)N[C@H](C(=O)N[C@@H](CCC(=O)O)C(=O)N[C@H](C(=O)NCC(=O)N[C@@H](CO)C(=O)N[C@@H](CC(N)=O)C(=O)N[C@H](C(=O)N[C@@H](Cc1ccc(O)cc1)C(N)=O)[C@@H](C)O)C(C)C)[C@@H](C)O` [Compound VI, KCETATCATG-Orn-LAE-αMeF-LVRSSN-NMeD-FGPILPPTEVGSNTY-NH2] (H-K([γGlu-γGlu-C20 diacid])CETATCATG[Orn]LAE[αMeF]LVRSSN[NMeD]FGPILPPTEVGSNTY-NH2; linker 2-7 via CH2), the EC50 (hAMY1R) was 0.107 ± 0.015 nM, the EC50 (human CT receptors) was 13.2 ± 2.23 nM and the CL/F [1, 3] was 1.26 mL/h/kg. The Tmax [1, 3] was 40 ± 13.9 h, the half-life ([1]; male, cynomolgus monkey, plasma, n = 3, read-out: T½ (converted)) was 85 ± 5.8 h and the AUCINF/D ([1]; n = 3) was 794 ± 27 hr * kg * nmol/L/nmol. The Cmax/D ([1]; n = 3) was 4.9 ± 0.7 kg * nmol/L/nmol, the “MAPPS Assay donors displayed peptides” value (human dendritic cells) was “no peptides” and the “MAPPS Assay immunogenicity risk” value (human dendritic cells) was “Low Risk”. For the same molecule, the “peptides displayed on MHC-II complexes” value (human dendritic cells) was “no peptides displayed on MHC-II complexes” and the “Pre-existing Reactivity 90th percentile T2 inhibition” value [2] was 43.9%.
